{
  "source": "patent US12115176B2",
  "about": "“Methods and compositions relating to ClbP inhibition” (PRESIDENT AND FELLOWS OF HARVARD COLLEGE, priority 2021, dated 2024)",
  "key": {"Klebsiella oxytoca": {"test_system": "Klebsiella oxytoca", "test": "Bacterial MIC assay (broth dilution)", "assay_type": "cell-based", "conditions": "15 h, read-out: MICs by compound"}, "Lactobacillus rhamnosus": {"test_system": "Lactobacillus rhamnosus", "test": "Bacterial MIC assay (broth dilution)", "assay_type": "cell-based", "conditions": "Lacticaseibacillus rhamnosus, 15 h, read-out: MICs by compound"}, "Bifidobacterium longum": {"test_system": "Bifidobacterium longum", "test": "Bacterial MIC assay (broth dilution)", "assay_type": "cell-based", "conditions": "15 h, read-out: MICs by compound"}, "[1]": {"test_system": "serine hydrolases in E. coli cell lysates", "test": "Gel-based ABPP with fluorophosphonate probe (FP)", "assay_type": "binding", "conditions": "inhibitor up to 100 μM", "from_the_text": "To further explore other possible targets of inhibitors 1-4, an activity-based protein profiling (ABPP) approach was used to assay their activity against a wide variety of serine hydrolases in bacterial and mammalian proteomes. […] One limitation of this assay is that ClbP is not labeled by the FP probe, so it cannot be observed as a reference for binding. Any other proteins which evade labeling by FP would also not be detected in this assay.\nActivity-Based Protein Profiling. Bacterial or mammalian cell lysates were normalized to 1 mg/mL protein concentrations in PBS using the DC protein assay (Bio-Rad). 50 μL aliquots of lysates were incubated with compounds at the indicated concentrations (1 μL of a 50X stock in DMSO) for 30 minutes at room temperature and subsequently labeled with 5 μM of fluorophosphonate-PEG(4)-biotin probe (1 μL of a 50X stock in DMSO, synthesized as previously reported)^56 for 1 hour at room temperature. The reactions were mixed with 50 μL of 2X SDS protein loading buffer, boiled for 10 minutes at 95° C., and separated by SDS-PAGE. The labeled proteins were detected by IRdye-conjugated streptavidin (Li-Cor) and visualized using the GellOdyssey™ Imaging System (Li-Cor).^56"}, "[2]": {"test_system": "Penicillin Binding Proteins (PBPs)", "test": "Gel-based ABPP with BOCILLIN-FL probe", "from_the_text": "To further explore the specificity of our inhibitors, another ABPP assay was used in which the broad-spectrum FP probe was replaced with a specific probe, BOCILLIN-FL, which targets penicillin binding proteins (PBPs) using a β-lactam warhead. This probe was chosen because of ClbP's homology to AmpC β-lactamases. Since PBPs are targeted by β-lactams, it was reasoned that the similarity of their binding pockets would mean a greater chance of identifying a secondary target among this family of enzymes."}, "[3]": {"test_system": "HeLa cells infected with NC101", "test": "DNA adduct detection by LC-MS", "assay_type": "cell-based, human", "conditions": "1 μM 3", "experimental": "DNA adduct detection. Infections for DNA adduct detection were carried out using the protocol described above in 6-well plates where all volumes and cell numbers were increased by a factor of 4 accordingly. After trypsinization, cell pellets were frozen at −80° C. until analysis. DNA was isolated from cells as previously reported.^15 DNA samples (100 μL, 31-48 μg) in silanized glass vials were incubated at 80° C. for 1 hour. After the incubation, samples were allowed to cool to room temperature, and volumes were increased to 200 μL by adding LC-MS grade water. Samples were filtered using a Centrifree Ultrafiltration Device (30K molecular weight, Millipore Sigma) at 2000× g for 15 minutes. Samples were dried under vacuum and stored at −20° C. Mass spectrometric data was acquired with the following conditions. The dried samples were reconstituted in 10 μL of H2O and 4 μL of the resulting solution were injected onto an UltiMate 3000 RSLCnano UPLC (Thermo Fisher Scientific) system equipped with a 5 μL injection loop. Separation was performed with a capillary column (75 μm ID, 20 cm length, 10 μm orifice) created by hand packing a commercially available fused-silica emitter (New Objective, Woburn, MA) with 5 μm Luna C18 bonded separation media (Phenomenex, Torrance, CA). […]"}, "[4]": {"test_system": "E. coli NC101 with mouse fecal community", "test": "ClbP inhibition in a microbial community", "assay_type": "cell-based", "conditions": "E. coli NC101 plus C57BL/6J mouse fecal community, anaerobic, 1 μM 3, LC-MS", "experimental": "ClbP inhibition in a microbial community. Mouse pellets were aseptically collected from cages and immediately stored at −80° C. until use. One 5 mL starter culture each of E. coli NC101 and E. coli NC101ΔclbP was started from frozen stocks in deoxygenated Brain-Heart Infusion media (BHI) inside an anaerobic chamber under a 95% N215% H2 atmosphere and incubated at 37° C. overnight. Mouse fecal pellets were defrosted in the anaerobic chamber and resuspended in BHI with 10 mL media/100 mg pellet mass. The fecal slurry was then centrifuged at 1000×g for 5 minutes to separate solids and the resulting supernatant was used as the media for all “+ community” conditions. Cultures were incubated in 500 μL volumes in triplicate in a deep-well plate under anaerobic conditions, with a 1:100 inoculum of the appropriate E. coli overnight for the “+E. coli” conditions. All samples contained a final concentration of 1% DMSO, with or without 1 μM inhibitor 3. After 20 hours at 37° C., samples were processed, and the concentration of N-myristoyl-D-asparagine quantified via LC-MS/MS as described above."}},
  "note": "“Also recorded” adds a separate entry of the source.",
  "data": [
    {"smiles": "CC1(C)OB([C@@H](CC(N)=O)NC(=O)CCCc2ccccc2)OC1(C)C", "note": "[Compound 3]", "values": [
      {"measurement": "MIC", "setting": "Klebsiella oxytoca", "result": "> 200", "unit": "µM"},
      {"measurement": "MIC", "setting": "Lactobacillus rhamnosus", "result": "> 200", "unit": "µM"},
      {"measurement": "MIC", "setting": "Bifidobacterium longum", "result": "> 200", "unit": "µM"},
      {"measurement": "change in protein labeling by FP probe", "setting": "[1]", "result": "does not identify any significant targets"},
      {"measurement": "competitive binding to BOCILLIN-FL labeled PBPs", "setting": "[2]; B. cereus ATCC14579 lysate", "result": "none of these PBPs showed any binding; also recorded: no competitive binding"},
      {"measurement": "competitive binding to BOCILLIN-FL labeled PBPs", "setting": "[2]; E. coli NC101 lysate", "result": "none of these PBPs showed any binding; also recorded: no competitive binding"},
      {"measurement": "colibactin-derived DNA adduct formation", "setting": "[3]", "result": "could effectively suppress formation of a colibactin-derived DNA adduct; also recorded: sufficient to suppress adduct formation to a degree similar to genetic deletion of clbP; also recorded: prevents"},
      {"measurement": "production of prodrug scaffold in a complex microbial community", "setting": "[4]", "result": "reduce the release of N-myristoyl-Asn; also recorded: fully suppressed production of the prodrug scaffold; also recorded: can selectively block colibactin biosynthesis; also recorded: can still effectively block colibactin production"}
    ]}
  ]
}
